Key:
Type in all cases: in vivo
[1] = system: Spodoptera littoralis (Egyptian Cotton Leaf Worm); assay: Activity against Spodoptera littoralis (Egyptian cotton leaf worm), sprayed cotton leaf discs; settings: foliar, 72 h, application rate 200 ppm, L1 larvae, 3 days after infestation
Outline: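 Leaf discs on agar were sprayed with aqueous solutions prepared from 10,000 ppm DMSO stock, dried, then infested with five L1 larvae. Mortality, anti-feeding and growth inhibition were scored against untreated discs 3 days after infestation. Control was recorded when any one category exceeded the untreated sample.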

[2] = system: Diabrotica balteata (Corn Root Worm); assay: Activity against Diabrotica balteata (corn root worm), sprayed maize sprouts on agar; settings: 96 h, application rate 200 ppm, L2 larvae, 4 days after infestation, read-out: effect in at least one of the two categories (mortality or growth inhibition)
Experimental: Example B2: Activity Against Diabrotica balteata (Corn Root Worm)
Maize sprouts placed onto an agar layer in 24-well microtiter plates were treated with aqueous test solutions prepared from 10,000 ppm DMSO stock solutions by spraying. After drying, the plates were infested with L2 larvae (6 to 10 per well). The samples were assessed for mortality and growth inhibition in comparison to untreated samples 4 days after infestation.

[3] = system: Myzus persicae (Green Peach Aphid); assay: Activity against Myzus persicae (green peach aphid), feeding/contact activity; settings: 144 h, application rate 200 ppm, mixed ages, 6 days after infestation
Experimental: Example B6: Activity Against Myzus persicae (Green Peach Aphid) Feeding/Contact Activity
Sunflower leaf discs were placed onto agar in a 24-well microtiter plate and sprayed with aqueous test solutions prepared from 10,000 ppm DMSO stock solutions. After drying, the leaf discs were infested with an aphid population of mixed ages. The samples were assessed for mortality 6 days after infestation.

[4] = system: Plutella xylostella (Diamond Back Moth); assay: Activity against Plutella xylostella (diamond back moth), treated artificial diet; settings: 192 h, application rate 200 ppm, eggs, 8 days after infestation, read-out: effect in at least one of the two categories (mortality or growth inhibition)
Outline: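 Artificial diet treated with aqueous test solutions made from 10,000 ppm DMSO stocks, dried, then infested with Plutella eggs. Mortality and growth inhibition scored against untreated samples 8 days after infestation.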

[5] = system: Myzus persicae (Green Peach Aphid); assay: Activity against Myzus persicae (green peach aphid), systemic activity; settings: 144 h, test rate 24 ppm, roots of pea seedlings in test solution, 6 days
Experimental: Example B8: Activity Against Myzus persicae (Green Peach Aphid) Systemic Activity
Roots of pea seedlings infested with an aphid population of mixed ages were placed directly into aqueous test solutions prepared from 10,000 ppm DMSO stock solutions. The samples were assessed for mortality 6 days after placing seedlings into test solutions.

[6] = system: Chilo suppressalis (Striped Rice Stemborer); assay: Activity against Chilo suppressalis (striped rice stemborer), treated artificial diet; settings: 144 h, application rate 200 ppm, L2 larvae, 6 days after infestation
Outline: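 Artificial diet treated with aqueous test solutions made from 10,000 ppm DMSO stocks, dried, then infested with L2 larvae, 6-8 per well. Mortality, anti-feeding effect and growth inhibition scored versus untreated samples 6 days after infestation; control counted when any one category exceeds the untreated sample.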

CCS(=O)(=O)c1c(N2Cc3ncc(C(F)(F)F)cc3C2=O)nc2cc(OC)ccn12 [Compound P13, 6-(3-ethylsulfonyl-7-methoxy-imidazo [1,2-a]pyridin-2-yl)-3-(trifluoromethyl)-7H-pyrrolo[3,4-b] pyridin-5-one]
≥ 80%: percent control (mortality, anti-feedant effect or growth inhibition) at 200 ppm [1] | percent effect (mortality or growth inhibition) at 200 ppm [2] | mortality at 200 ppm [3] | percent effect (mortality or growth inhibition) at 200 ppm [4] | mortality at 24 ppm [5]

CCS(=O)(=O)c1c(N2Cc3ncc(C(F)(F)F)cc3C2=O)nc2cc(C)ccn12 [Compound P23, 6-(3-ethylsulfonyl-7-methyl-imidazo[1,2-a]pyridin-2-yl)-3-(trifluoromethyl)-7H-pyrrolo[3,4-b]pyridin-5-one]
≥ 80%: percent control (mortality, anti-feedant effect or growth inhibition) at 200 ppm [1] | percent effect (mortality or growth inhibition) at 200 ppm [2] | mortality at 200 ppm [3] | percent effect (mortality or growth inhibition) at 200 ppm [4] | percent control (mortality, anti-feedant effect or growth inhibition) at 200 ppm [6] | mortality at 24 ppm [5]

CCS(=O)(=O)c1c(N2Cc3ncc(C(F)(F)F)cc3C2=O)nc2ccc(NC(C)=O)cn12 [Compound P36, N-[3-ethylsulfonyl-2-[5-oxo-3-(trifluoromethyl)-7H-pyrrolo[3,4-b]pyridin-6-yl]imidazo[1,2-a]pyridin-6-yl]acetamide]
≥ 80%: percent control (mortality, anti-feedant effect or growth inhibition) at 200 ppm [1] | percent effect (mortality or growth inhibition) at 200 ppm [2] | mortality at 200 ppm [3] | percent effect (mortality or growth inhibition) at 200 ppm [4] | percent control (mortality, anti-feedant effect or growth inhibition) at 200 ppm [6] | mortality at 24 ppm [5]

Reference: US12696901B2, “Pesticidally active heterocyclic derivatives with sulfur containing substituents” (SYNGENTA CROP PROTECTION AG, priority 2020, dated 2026)
